Reference: the supplement of paper PMC9663587

How the values were obtained:
Experiment in all cases: area over the GR curve, 72 h; higher = more effect;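 note: Dye Drop or Deep Dye Drop imaging of viable cells in 384-well plates (Hoechst nuclei, LIVE/DEAD dye), nine half-log doses, GR normalized to DMSO controls and time-zero plates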
[1] = tested on: AU565
[2] = tested on: BT549
[3] = tested on: EFM19
[4] = tested on: HCC1569
[5] = tested on: HCC1954
[6] = tested on: HCC70
[7] = tested on: MDAMB231
[8] = tested on: MDAMB415
[9] = tested on: MDAMB453
[10] = tested on: MDAMB468
[11] = tested on: PDX1328
[12] = tested on: SKBR3

Row | SMILES | area over the GR curve [1] [GR] | area over the GR curve [2] [GR] | area over the GR curve [3] [GR] | area over the GR curve [4] [GR] | area over the GR curve [5] [GR] | area over the GR curve [6] [GR] | area over the GR curve [7] [GR] | area over the GR curve [8] [GR] | area over the GR curve [9] [GR] | area over the GR curve [10] [GR] | area over the GR curve [11] [GR] | area over the GR curve [12] [GR]
1 | CC(=O)Nc1cccc(-n2c(=O)n(C3CC3)c(=O)c3c(Nc4ccc(I)cc4F)n(C)c(=O)c(C)c32)c1 (max 1 µM) | -0.0244 | 0.129 | -0.1 | 0.135 | 0.401 | 0.692 | 0.722 | 0.174 | 0.279 | 0.213 | 0.166 | 0.182
2 | CC(=O)c1c(C)c2cnc(Nc3ccc(N4CCNCC4)cn3)nc2n(C2CCCC2)c1=O (max 3.162 µM) | 0.296 | -0.0495 | 0.179 | 0.0095 | 0.176 | -0.0552 | 0.345 | 0.454 | 0.437 | -0.0231 | 0.252 | 0.285
3 | COc1cccc2c1C(=O)c1c(O)c3c(c(O)c1C2=O)C[C@@](O)(C(=O)CO)C[C@@H]3O[C@H]1C[C@H](N)[C@H](O)[C@H](C)O1 [Doxorubicin] (max 3.162 µM) | 0.604 | 0.76 | 0.448 | 0.492 | 0.73 | 0.775 | 0.818 | 0.834 | 0.786 | 0.912 | 0.637 | 0.942
4 | COc1cc([C@@H]2c3cc4c(cc3[C@@H](O[C@@H]3O[C@@H]5CO[C@@H](C)O[C@H]5[C@H](O)[C@H]3O)[C@H]3COC(=O)[C@H]23)OCO4)cc(OC)c1O [Etoposide] (max 10 µM) |  | 0.473 |  |  | 0.501 | 0.454 | 0.298 |  | 0.362 | 0.429 | 0.35 | 0.403
5 | CCC(=O)Nc1ccc(C(=O)Nc2ccc(Nc3ncc4c(n3)N(C)c3ccc(C)cc3C(=O)N4C)cc2)cc1 [FMF-03-145-1] | 0.501 | 1.02 | 0.341 | 1 | 1.15 | 1.31 | 0.947 | 0.845 | 0.392 | 0.572 | 0.808 | 0.464
6 | C=CCn1c(=O)c2cnc(Nc3ccc(N4CCN(C)CC4)cc3)nc2n1-c1cccc(C(C)(C)O)n1 [AZD1775] (max 10 µM) | 0.496 | 0.446 | 0.23 | 0.825 | 0.295 | 1.15 | 0.606 | 0.28 | 0.563 | 0.47 | 0.806 | 0.528
7 | CC(=O)O[C@H]1C(=O)[C@@]2(C)[C@H]([C@H](OC(=O)c3ccccc3)[C@]3(O)C[C@H](OC(=O)[C@H](O)[C@@H](NC(=O)c4ccccc4)c4ccccc4)C(C)=C1C3(C)C)[C@]1(OC(C)=O)CO[C@@H]1C[C@@H]2O [Paclitaxel] (max 1 µM) | 0.994 | 0.699 | 0.874 | 0.663 | 0.827 | 0.977 | 0.702 | 0.948 | 0.658 | 1.01 | 0.866 | 0.89
8 | CCCCOc1c(C(=O)c2c(F)cc(C)cc2F)c[nH]c2nncc1-2 (max 10 µM) | 0.514 | 0.94 | 0.497 | 0.657 | 0.835 | 0.914 | 0.334 | 0.349 | 0.384 | 0.516 | 0.142 | 0.541
9 | C[C@@H]1COCCN1c1cc(C2([S@](C)(=N)=O)CC2)nc(-c2cc[nH]c3nccc2-3)n1 [AZD6738] (max 10 µM) | 0.0383 | 0.0821 | 0.0109 | 0.053 | -0.0136 | 0.283 | -0.0233 | 0.0148 | 0.0984 | 0.0381 | 0.172 | 0.335
10 | CC[C@@]1(O)C(=O)OCc2c1cc1n(c2=O)Cc2cc3c(CN(C)C)c(O)ccc3nc2-1 [Topotecan] (max 10 µM) |  | 0.851 |  |  | 0.869 | 1.06 | 0.704 |  | 0.926 | 1.07 | 1.07 | 0.794
11 | CCN1CCN(Cc2ccc(Nc3ncc(F)c(-c4cc(F)c5nc(C)n(C(C)C)c5c4)n3)nc2)CC1 (max 10 µM) | 0.657 | 0.127 | 0.478 | 0.132 | 0.458 | 0.145 | 0.675 | 0.71 | 0.85 | 0.176 | 0.676 | 0.536
12 | Cc1cc(Nc2ncc(Cl)c(Nc3ccccc3S(=O)(=O)C(C)C)n2)c(OC(C)C)cc1C1CCNCC1 [Ceritinib/LDK378] (max 10 µM) | 0.0682 | 0.141 | 0.0971 | 0.124 | 0.124 | 0.0676 | 0.344 | 0.085 | 0.461 | 0.405 | 0.416 | 0.301
13 | COc1cc2c(Oc3ccc4[nH]c(C)cc4c3F)ncnc2cc1OCCCN1CCCC1 [Cediranib/AZD2171] (max 10 µM) | -0.0924 | 0.15 | 0.0327 | -0.0292 | 0.0591 | 0.0746 | 0.116 | 0.246 | 0.126 | 0.165 | 0.162 | 0.063
14 | CNCc1ccc(-c2[nH]c3cc(F)cc4c3c2CCNC4=O)cc1 [Rucaparib] (max 10 µM) | 0.0692 | 0.0437 | 0.0332 | -0.0162 | 0.059 | -0.0415 | 0.0793 | 0.11 | 0.14 | 0.101 | 0.151 | 0.119
15 | NC(=O)Nc1cc(-c2cccc(F)c2)sc1C(=O)N[C@H]1CCCNC1 [AZD7762] (max 10 µM) | 0.338 | 0.601 | 0.222 | 0.772 | 0.515 | 0.839 | 0.527 | 0.398 | 0.853 | 0.487 | 0.828 | 0.88
16 | N.N.[Cl][Pt][Cl] [Cisplatin] (max 10 µM) |  | 0.283 |  |  | 0.275 | 0.253 | 0.15 |  | 0.0713 | 0.287 | 0.287 | 0.0978
